Laboratory results from the supplement of paper PMC12137928.
Structures can show the parent of a compound that is named as a salt.

System: HCT116
Settings: 72 h
Outline: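 After seeding at 250 cells per well in 1536-well plates, HCT116 cells were given 5 h to attach. CellTiter-Glo luminescence, scaled to 0% for vehicle and -100% for positive control, was pattern-corrected. Fitting with a four-parameter Hill model produced IC50 and maximal efficacy.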

| Structure (SMILES) | IC50 cell viability (ICRF193 0 nM) [µM] | IC50 cell viability (ICRF193 200 nM) [µM] |
| --- | --- | --- |
| CO/N=C(\C(=O)N[C@@H]1C(=O)N2C(C(=O)O)=C(Cn3nnc(C)n3)CS[C@H]12)c1csc(N)n1 [Cefteram] | > 45.8 | > 45.8 |
| O=C(Cn1cnnn1)N[C@@H]1C(=O)N2C(C(=O)O)=C(CSc3nncs3)CS[C@H]12 [Ceftezole sodium] | > 45.8 | > 45.8 |
| CO/N=C(\C(=O)N[C@@H]1C(=O)N2C(C(=O)O)=C(CSc3nc(=O)c(O)nn3C)CS[C@H]12)c1csc(N)n1 [Ceftriaxone disodium trihydrate] | > 45.8 | > 45.8 |
| CO/N=C(\C(=O)N[C@@H]1C(=O)N2C(C(=O)OC(C)OC(C)=O)=C(COC(N)=O)CS[C@H]12)c1ccco1 (stereo partly drawn) [Cefuroxime Axetil] | > 45.8 | > 45.8 |
| CO/N=C(\C(=O)N[C@@H]1C(=O)N2C(C(=O)O)=C(CSc3cnns3)CS[C@H]12)c1csc(N)n1 [Cefuzonam hydrochloride] | > 45.8 | > 45.8 |
| CCN(CC)C(=O)Nc1ccc(OCC(O)CNC(C)(C)C)c(C(C)=O)c1 (stereo not drawn) [Celiprolol hydrochloride] | > 45.8 | > 45.8 |
| CC1=C(C(=O)O)N2C(=O)[C@@H](NC(=O)[C@H](N)c3ccccc3)[C@H]2SC1 [Cephalexin] | > 45.8 | > 45.8 |
| O=C(Cc1cccs1)N[C@@H]1C(=O)N2C(C(=O)[O-])=C(C[n+]3ccccc3)CS[C@H]12 [Cephaloridine] | > 45.8 | > 45.8 |
| CC(=O)OCC1=C(C(=O)O)N2C(=O)[C@@H](NC(=O)Cc3cccs3)[C@H]2SC1 [Cephalothin] | > 45.8 | > 45.8 |
| CC(=O)OCC1=C(C(=O)O)N2C(=O)[C@@H](NC(=O)CSc3ccncc3)[C@H]2SC1 [Cephapirin sodium] | > 45.8 | > 45.8 |
| CCCCCCCCCCCCCCCCOc1nc2ccc(C)cc2c(=O)o1 [Cetilistat] | > 45.8 | > 45.8 |
| NC[C@H]1CC[C@H](C(=O)Oc2ccc(CCC(=O)O)cc2)CC1 [Cetraxate hydrochloride] | > 45.8 | > 45.8 |
| CC(=O)N[C@H](Cc1ccc2ccccc2c1)C(=O)N[C@H](Cc1ccc(Cl)cc1)C(=O)N[C@H](Cc1cccnc1)C(=O)N[C@@H](CO)C(=O)N[C@@H](Cc1ccc(O)cc1)C(=O)N[C@H](CCCNC(N)=O)C(=O)N[C@@H](CC(C)C)C(=O)N[C@@H](CCCNC(=N)N)C(=O)N1CCC[C@H]1C(=O)N[C@H](C)C(N)=O [Cetrorelix] | > 45.8 | > 45.8 |
| CC1OC2(CS1)CN1CCC2CC1 (stereo not drawn) [Cevimeline hydrochloride] | > 45.8 | > 45.8 |
| CN(C)CCC(O)(c1ccccc1)c1ccccc1Cl (stereo not drawn) [Chlophedianol] | > 45.8 | > 45.8 |
| O=C(O)CCCc1ccc(N(CCCl)CCCl)cc1 [Chlorambucil] | > 45.8 | > 45.8 |
| CCCCCCCCCCCCCCCC(=O)OC[C@@H](NC(=O)C(Cl)Cl)[C@H](O)c1ccc([N+](=O)[O-])cc1 [Chloramphenicol palmitate] | > 45.8 | > 45.8 |
| O=C(O)CCC(=O)OC[C@@H](NC(=O)C(Cl)Cl)[C@H](O)c1ccc([N+](=O)[O-])cc1 [Chloramphenicol sodium succinate] | > 45.8 | > 45.8 |
| O=C(N[C@H](CO)[C@H](O)c1ccc([N+](=O)[O-])cc1)C(Cl)Cl [Chloramphenicol] | > 45.8 | > 45.8 |
| CN1CCN(C(c2ccccc2)c2ccc(Cl)cc2)CC1 (stereo not drawn) [Chlorcyclizine] | > 45.8 | > 45.8 |

| Structure (SMILES) | IC50 cell viability (ICRF193 0 nM) [µM] | IC50 cell viability (ICRF193 200 nM) [µM] |
| --- | --- | --- |
| NS(=O)(=O)c1cc2c(cc1Cl)CN(C1CCCCC1)C2=O [Chlorexolone] | > 45.8 | > 45.8 |
| CC(=O)O[C@]1(C(C)=O)CC[C@H]2[C@@H]3C=C(Cl)C4=CC(=O)CC[C@]4(C)[C@H]3CC[C@@]21C [Chlormadinone acetate] | > 45.8 | > 45.8 |
| CN1C(=O)CCS(=O)(=O)C1c1ccc(Cl)cc1 (stereo not drawn) [Chlormezanone] | > 45.8 | > 45.8 |
| CCN(CC)CCOC(=O)c1ccc(N)cc1Cl [Chloroprocaine HCl] | > 45.8 | > 45.8 |
| CCN(CC)CCCC(C)Nc1ccnc2cc(Cl)ccc12 (stereo not drawn) [Chloroquine] | > 45.8 | > 45.8 |
| NS(=O)(=O)c1cc2c(cc1Cl)N=CNS2(=O)=O [Chlorothiazide] | > 45.8 | > 45.8 |
| NC(=O)OCC(O)COc1ccc(Cl)cc1 (stereo not drawn) [Chlorphensin carbamate] | > 45.8 | > 45.8 |
| CCCNC(=O)NS(=O)(=O)c1ccc(Cl)cc1 [Chlorpropamide] | > 45.8 | > 45.8 |
| CN(C)[C@@H]1C(O)=C(C(N)=O)C(=O)[C@@]2(O)C(O)=C3C(=O)c4c(O)ccc(Cl)c4[C@@](C)(O)[C@H]3C[C@@H]12 [Chlortetracycline HCl] | > 45.8 | > 45.8 |
| NS(=O)(=O)c1cc(C2(O)NC(=O)c3ccccc32)ccc1Cl (stereo not drawn) [Chlorthalidone] | > 45.8 | > 45.8 |
| CC(C)(Oc1ccc(Cl)cc1)C(=O)OCCCOC(=O)C(C)(C)Oc1ccc(Cl)cc1 [Cholesolvin] | > 45.8 | > 45.8 |
| CC(C)CCC[C@@H](C)[C@H]1CC[C@H]2[C@@H]3CC=C4C[C@@H](O)CC[C@]4(C)[C@H]3CC[C@]12C [Cholesterol] | > 45.8 | > 45.8 |
| C[C@H](CCC(=O)O)[C@H]1CC[C@H]2[C@@H]3[C@H](O)C[C@@H]4C[C@H](O)CC[C@]4(C)[C@H]3C[C@H](O)[C@]12C [Cholic Acid] | > 45.8 | > 45.8 |
| C[N+](C)(C)CCO.[Cl-] [Choline Chloride] | > 45.8 | > 45.8 |
| CCOC(=O)COc1ccc2c(C)c(CCN(CC)CC)c(=O)oc2c1 [Chromonar hydrochloride] | > 45.8 | > 45.8 |
| Cc1cc(O)c2c(O)c3c(O)cccc3cc2c1 [Chrysarobin] | > 45.8 | > 45.8 |
| c1ccc(C2(c3ccccc3)CC2C2=NCCN2)cc1 (stereo not drawn) [Cibenzoline succinate] | > 45.8 | > 45.8 |
| CC(C)C(=O)OCC(=O)[C@@]12O[C@H](C3CCCCC3)O[C@@H]1C[C@H]1[C@@H]3CCC4=CC(=O)C=C[C@]4(C)[C@H]3[C@@H](O)C[C@@]12C [Ciclesonide] | > 45.8 | > 45.8 |
| Nc1ccn(C[C@@H](CO)OCP(=O)(O)O)c(=O)n1 [Cidofovir] | > 45.8 | > 45.8 |
| CC1(C)C[C@@H]1C(=O)N/C(=C\CCCCSC[C@H](N)C(=O)O)C(=O)O [Cilastatin] | > 45.8 | > 45.8 |

| Structure (SMILES) | IC50 cell viability (ICRF193 0 nM) [µM] | IC50 cell viability (ICRF193 200 nM) [µM] |
| --- | --- | --- |
| CCOC(=O)[C@H](CCc1ccccc1)N[C@H]1CCCN2CCC[C@@H](C(=O)O)N2C1=O [Cilazapril] | > 45.8 | > 45.8 |
| CC(C)[C@H]1C(=O)N[C@@H](CCCNC(=N)N)C(=O)NCC(=O)N[C@@H](CC(=O)O)C(=O)N[C@H](Cc2ccccc2)C(=O)N1C [Cilengitide] | > 45.8 | > 45.8 |
| COc1ccc([C@]2(C#N)CC[C@@H](C(=O)O)CC2)cc1OC1CCCC1 [Cilomilast] | > 45.8 | > 45.8 |
| CN/C(=N\CCSCc1nc[nH]c1C)NC#N [Cimetidine] | > 45.8 | > 45.8 |
| COc1ccc(-c2c(Cl)ncn2-c2ccc(S(N)(=O)=O)cc2)cc1F [Cimicoxib] | > 45.8 | > 45.8 |
| COc1cc(/C=C/C(=O)N2CCN(CC(=O)N3CCCC3)CC2)cc(OC)c1OC [Cinepazide Maleate] | > 45.8 | > 45.8 |
| CC(C(O)c1ccccc1)N(C)C/C=C/c1ccccc1 (stereo not drawn) [Cinnamedrine] | > 45.8 | > 45.8 |
| OC/C=C/c1ccccc1 [Cinnamyl alcohol] | > 45.8 | > 45.8 |
| C(=C\c1ccccc1)/CN1CCN(C(c2ccccc2)c2ccccc2)CC1 [Cinnarizine] | > 45.8 | > 45.8 |
| CCn1nc(C(=O)O)c(=O)c2cc3c(cc21)OCO3 [Cinoxacin] | > 45.8 | > 45.8 |
| CCOCCOC(=O)/C=C/c1ccc(OC)cc1 [Cinoxate] | > 45.8 | > 45.8 |
| CC(C)(Oc1ccc(C2CC2(Cl)Cl)cc1)C(=O)O (stereo not drawn) [Ciprofibrate] | > 45.8 | > 45.8 |
| O=C(O)c1cn(C2CC2)c2cc(N3CCNCC3)c(F)cc2c1=O [Ciprofloxacin] | > 45.8 | > 45.8 |
| COc1cc(N)c(Cl)cc1C(=O)NC1CCN(CCCOc2ccc(F)cc2)CC1OC (stereo not drawn) [Cisapride] | > 45.8 | > 45.8 |
| CN(C)CCCC1(c2ccc(F)cc2)OCc2cc(C#N)ccc21 (stereo not drawn) [Citalopram hydrobromide] | > 45.8 | > 45.8 |
| CC[C@H]1OC(=O)[C@H](C)[C@@H](O[C@H]2C[C@@](C)(OC)[C@@H](O)[C@H](C)O2)[C@H](C)[C@@H](O[C@@H]2O[C@H](C)C[C@H](N(C)C)[C@H]2O)[C@](C)(OC)C[C@@H](C)C(=O)[C@H](C)[C@@H](O)[C@]1(C)O [Clarithromycin] | > 45.8 | > 45.8 |
| COc1cc(N)c(Cl)cc1C(=O)NC1CCN(Cc2ccccc2)CC1 [Clebopride maleate] | > 45.8 | > 45.8 |
| Clc1ccc(Cn2c(CN3CCCC3)nc3ccccc32)cc1 [Clemizole hydrochloride] | > 45.8 | > 45.8 |
| CC(C)(C)NCC(O)c1cc(Cl)c(N)c(Cl)c1 (stereo not drawn) [Clenbuterol] | > 45.8 | > 45.8 |
